Test results: article PMC3545233 (Scientific Reports, 2013)
Read-outs that look alike come from different tables or passages of the source.

Experiments:
recombinant hAChE = recombinant hAChE (Homo sapiens, UniProt P22303); experiment: Time-course and dilution experiments of AChE inhibition; type: biochemical
recombinant agAP-AChE [1] = biological target: T1, recombinant agAP-AChE (Anopheles gambiae, UniProt Q869C3); experiment: biochemical; set-up: species or system Anopheles gambiae sensu stricto
T1 sequence (Q869C3 39-737): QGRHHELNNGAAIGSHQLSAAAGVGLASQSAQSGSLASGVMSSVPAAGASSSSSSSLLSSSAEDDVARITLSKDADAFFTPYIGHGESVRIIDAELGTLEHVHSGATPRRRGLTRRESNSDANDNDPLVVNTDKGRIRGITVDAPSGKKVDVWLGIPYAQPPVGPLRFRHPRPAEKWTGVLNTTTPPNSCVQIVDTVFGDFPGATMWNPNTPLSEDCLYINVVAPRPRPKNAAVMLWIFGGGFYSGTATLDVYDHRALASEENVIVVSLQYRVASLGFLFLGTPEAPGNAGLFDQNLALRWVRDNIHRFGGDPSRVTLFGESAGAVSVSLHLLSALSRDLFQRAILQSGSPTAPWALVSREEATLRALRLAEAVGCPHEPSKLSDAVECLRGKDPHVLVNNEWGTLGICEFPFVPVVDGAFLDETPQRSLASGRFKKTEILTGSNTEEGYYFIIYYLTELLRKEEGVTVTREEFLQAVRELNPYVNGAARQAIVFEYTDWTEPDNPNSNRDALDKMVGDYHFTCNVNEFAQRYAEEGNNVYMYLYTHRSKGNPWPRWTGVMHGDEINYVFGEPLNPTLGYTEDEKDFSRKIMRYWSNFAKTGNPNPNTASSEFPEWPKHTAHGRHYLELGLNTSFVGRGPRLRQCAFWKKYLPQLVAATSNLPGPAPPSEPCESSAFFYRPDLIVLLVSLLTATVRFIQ

recombinant agAP-AChE [2] = biological target: T1, recombinant agAP-AChE; experiment: Time-course and dilution experiments of AChE inhibition; type: biochemical, Anopheles gambiae sensu stricto; conditions: for inhibition at 50 µM: read-out: inhibition of the enzyme activity, agAP-AChE, 50 μM NEM
recombinant agAP-AChE [3] = biological target: T1, recombinant agAP-AChE; type: biochemical, Anopheles gambiae sensu stricto; conditions: ≤15 min, paraoxon 333–2000 nM

Chain of recombinant hAChE (P22303 32-614): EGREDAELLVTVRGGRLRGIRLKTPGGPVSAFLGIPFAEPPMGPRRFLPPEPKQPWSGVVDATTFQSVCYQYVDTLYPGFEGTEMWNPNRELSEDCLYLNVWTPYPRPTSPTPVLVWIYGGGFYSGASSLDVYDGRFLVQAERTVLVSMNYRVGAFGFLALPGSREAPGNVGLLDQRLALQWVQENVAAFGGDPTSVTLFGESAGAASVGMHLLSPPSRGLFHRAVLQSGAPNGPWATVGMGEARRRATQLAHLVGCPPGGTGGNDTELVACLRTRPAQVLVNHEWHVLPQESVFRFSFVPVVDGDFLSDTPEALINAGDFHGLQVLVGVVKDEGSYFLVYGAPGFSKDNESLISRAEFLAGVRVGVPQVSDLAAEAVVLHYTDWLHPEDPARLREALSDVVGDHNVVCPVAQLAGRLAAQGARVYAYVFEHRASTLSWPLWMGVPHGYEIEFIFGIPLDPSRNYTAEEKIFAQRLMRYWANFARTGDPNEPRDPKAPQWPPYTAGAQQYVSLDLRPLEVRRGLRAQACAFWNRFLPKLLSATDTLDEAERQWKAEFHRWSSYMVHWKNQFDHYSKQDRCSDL

| Compound | irreversible inhibition (time-course and dilution experiments) (recombinant hAChE) | Ki (recombinant agAP-AChE [1]) [nM] | irreversible inhibition (time-course and dilution experiments) (recombinant agAP-AChE [2]; agAP-AChE) | further results |
| --- | --- | --- | --- | --- |
| Cl.O=C1CCC(=O)N1CCCCCCCCCCCCCCCCCCN1CCCCC1 [PYS18, 1-(18-(Piperidin-1-yl)octadecyl)pyrrolidine-2,5-dione hydrochloride] | irreversibly inhibited neither | 26200 | irreversibly inhibited neither | – |
| Cl.O=C1C=CC(=O)N1CCCCCCCCCCCCCCCCCCN1CCCCC1 [PY18, 1-(18-(Piperidin-1-yl)octadecyl)-1H-pyrrole-2,5-dione hydrochloride] | not hAChE | – | irreversibly inhibited agAP-AChE | – |
| O=C1C=CC(=O)N1CCCCCCCCCCCCCCCCCCCC[n+]1ccccc1.[Br-] [PM20, 1-(20-(2,5-Dioxo-2,5-dihydro-1H-pyrrol-1-yl)eicosyl)pyridinium bromide] | not hAChE | 400 | irreversibly inhibited agAP-AChE | decrease of the enzyme activity (recombinant agAP-AChE [2]; agAP-AChE, combination of 50 μM NEM and 6.7 nM PM20 for 30 minutes): 94 ± 3%; inhibition at 0.0067 µM (recombinant agAP-AChE [2]; read-out: enzyme activity inhibited, agAP-AChE, incubated with 50 μM NEM, then treated with 6.7 nM PM20 for 30 minutes): 96 ± 4%; kinact/KI fold higher than that of paraoxon (recombinant agAP-AChE [3]): 239 fold |
| CCOP(=O)(OCC)Oc1ccc([N+](=O)[O-])cc1 [Paraoxon, paraoxon, reference compound] | irreversibly inhibited both enzymes | – | irreversibly inhibited both enzymes | – |
| CCN1C(=O)CCC1=O [1-ethylpyrrolidine-2,5-dione, reference compound] | – | – | – | irreversible or reversible inhibition (recombinant hAChE; inhibitor concentrations up to 10 mM, data not shown): did not irreversibly or reversibly inhibit; irreversible or reversible inhibition (recombinant agAP-AChE [2]; agAP-AChE, inhibitor concentrations up to 10 mM, data not shown): did not irreversibly or reversibly inhibit |
| O=C([O-])C(F)(F)F.O=C1CCC(=O)N1CCCCCCCCCCCCCCCCCCCC[n+]1ccccc1 [PMS20, 1-(20-(2,5-Dioxopyrrolidin-1-yl)eicosyl)pyridin-1-ium 2,2,2-trifluoroacetate] | irreversibly inhibited neither | 420 | irreversibly inhibited neither | – |
| CCN1C(=O)C=CC1=O [NEM, N-ethylmaleimide, reference compound] | – | – | inability of NEM to irreversibly inhibit agAP-AChE | inhibition at 50 µM (recombinant agAP-AChE [2]; 30 minutes): 40 ± 1%; inhibition at 50 µM (recombinant agAP-AChE [2]; immediately): 36 ± 2% |
